“Also recorded” adds a separate entry of the source.
Columns and labels:
Set-up in all cases: species or system HIV
[1] = target: T1, gp120SF162 (Human immunodeficiency virus type 1 group M subtype B, UniProt P19550); assay: SPR (Biacore) competition: gp120 binding to immobilized sCD4 with and without small molecule; conditions: FIG. 1, compared to when the small molecule was not present
Experimental: (§1) In a second step, each of the 100 structurally identified compounds was screened for its ability to compete with CD4 binding to Env (gp120) as well as its ability to induce the desired conformational change in the HIV Env protein to expose inducible epitopes. Both binding competition and exposure of cryptic epitopes were analyzed using Biacore's SRP systems. (Biacore Inc., Piscataway, N.J.), following the manufacturer's instructions.
Surface plasmon resonance assays were performed using a BIACORE 3000 optical biosensor system (Biacore AB, Uppsala, Sweden) with simultaneous monitoring of relevant flow cells. To perform the kinetic study of the binding of HIV env to sCD4, sCD4 was immobilized using amine coupling onto CM5 sensor chip to attain 4000 response units. To perform the kinetic study of the binding of HIV env to the monoclonal antibody 17b, antibodies were immobilized using amine coupling onto a CM5 sensor chip to attain 2000 response units. Using PBS buffer (pH 7.4) with 0.05% Tween 20 and 3% DMSO, association was assessed by passing gp120SF162 (GenBank P03378; Sanchez-Pescador et al. (1985) Science, 227(4686): 484-492), with and without various controls or small molecules, over the chip surface at a flow rate of 25 μl/min. […] Responses were measured by assessing the maximum RUs (response units) obtained at the peak of the binding curve.

[2] = target: gp120SF162 (17b epitope) (Human immunodeficiency virus type 1 group M subtype B, UniProt P19550); assay: SPR (Biacore) upregulation of monoclonal antibody 17b binding to Env/compound complex; conditions: for upregulation of CD4 inducible epitopes on gp120: FIGS. 4B, 5B, antibody not stated in the legend
Experimental: as §1
(§2) Surface plasmon resonance assays were performed using a BIACORE 3000 optical biosensor system (Biacore AB, Uppsala, Sweden) with simultaneous monitoring of relevant flow cells. To perform the kinetic study of the binding of HIV env to sCD4, sCD4 was immobilized using amine coupling onto CM5 sensor chip to attain 4000 response units. To perform the kinetic study of the binding of HIV env to the monoclonal antibody 17b, antibodies were immobilized using amine coupling onto a CM5 sensor chip to attain 2000 response units. Using PBS buffer (pH 7.4) with 0.05% Tween 20 and 3% DMSO, association was assessed by passing gp120SF162 (GenBank P03378; Sanchez-Pescador et al. (1985) Science, 227(4686): 484-492), with and without various controls or small molecules, over the chip surface at a flow rate of 25 μl/min. The concentration of gp120SMF162 used was 1 uM for all samples. As a negative control, a control surface coupled to 2000 response units of BSA (Pierce) was used. A buffer only control was subtracted from all sensograms. Responses were measured by assessing the maximum RUs (response units) obtained at the peak of the binding curve.
The percentage upregulation of 17b was determined by dividing the peak RU observed for the Env polypeptide/compound complex divided by the peak RU for the Env polypeptide alone.
(§3) Additional candidate small molecules were screened for CD4 binding inhibition and upregulation of CD4 inducible epitopes, e.g., mABs 17b and 48D, by HPLC and BlAcore methods as described in Examples 1 and 4 above. Each of the compounds in Table 5 below was screened three times by both methods using different lots of both gp120 and antibodies. The rounds of screening tests were additionally carried out on different dates.

[3] = target: T1, gp120SF162; assay: Example 6 screening for CD4 binding inhibition (SEC-HPLC with fluorescently-labelled CD4, and Biacore); conditions: three rounds
Text: as §3
CD4 binding competition was examined in the free solution state by HPLC. Various candidate small molecules were each mixed with gp120SF162 and the resulting solution was incubated for 1 hour at 37° C. Fluorescently-labelled CD4, CD4 488, was then added to each incubated solution, and the resulting mixture was analyzed by size exclusion HPLC (SEC-HPLC), using fluorescent signal detection. The extent of competition with CD4 was determined as follows.

[4] = target: T2, gp120 (48D epitope) (Human immunodeficiency virus type 1 group M subtype B, UniProt P19550); assay: SPR (Biacore) upregulation of monoclonal antibody 48D binding to Env/compound complex; conditions: Example 6 screening; FIG. 6C
T2 construct: The concentration of gp120SMF162 used was 1 uM for all samples
Experimental: as §2
Additional candidate small molecules were screened for CD4 binding inhibition and upregulation of CD4 inducible epitopes, e.g., mABs 17b and 48D, by HPLC and BlAcore methods as described in Examples 1 and 4 above. […]

Row | SMILES | inhibition of CD4 binding to Env (Env binding to the CD4 chip) [1] | binding of Env/small molecule complex to monoclonal antibody 17b ([2]; SPR, FIG. 2, in comparison to Env-sCD4 complexes) | inhibition of (competition with) CD4 binding to gp120 [3] | upregulation of CD4 inducible epitopes on gp120 ([2]; Example 6 screening) | upregulation of 17b (CD4 inducible epitope on gp120) ([2]; Example 6 screening, binding to monoclonal antibody 17b) | upregulation of CD4 inducible epitopes on gp120, binding to monoclonal antibody 48D [4]
1 | CCOC(=O)C1CCN(C(=O)c2cc3c(C)cc(C)cc3[nH]2)CC1 [Compound 5, ethyl 1-[(4,6-dimethyl-1H-indol-2-yl)carbonyl]piperidine-4-carboxylate] | inhibition of CD4 binding to Env; also recorded: inhibited binding of Env to the CD4 chip | exhibited enhanced binding to monoclonal antibody 17b | – | – | – | –
2 | COc1ccccc1N1CCN(CC(=O)c2c(C)[nH]c3ccccc23)CC1 [Compound 26, 2-[4-(2-Methoxy-phenyl)-piperazin-1-yl]-1-(2-methyl-1H-indol-3-yl)-ethanone] | – | – | inhibition of CD4 binding to gp120 | upregulation of CD4 inducible epititopes on gp120 | – | –
3 | COc1ccc2[nH]cc(C(=O)CN3CCN(Cc4ccccc4)CC3)c2c1 [Compound 2, 2-(4-benzylpiperazin-1-yl)-1-(5-methoxy-1H-indol-3-yl)ethanone] | – | – | non-inhibition of CD4 binding to gp120 | – | upregulation of CD4 inducible epitopes on gp120 | upregulation of CD4 inducible epitopes on gp120
4 | COc1cc(C(=O)N2CCC(c3c[nH]c4ccccc34)CC2)cc(OC)c1OC [Compound 12, [4-(1H-indol-3-yl)-piperidin-1-yl]-(3,4,5-trimethoxy-phenyl)-methanone] | – | – | inhibition of CD4 binding to gp120 | absence of upregulation of CD4 inducible epititopes on gp120 | – | –
